melting point [°C] | Compound
110 | COc1cc(Nc2nccc(S(=O)(=O)c3ccccc3)n2)cc(OC)c1OC
141 | CCOC(=O)c1c(C=O)c2c(Cl)cc(Cl)cc2n1C(=O)OC(C)(C)C
167 to 169 | CS(=O)(=O)Nc1cc(F)cc(C(O)CN)c1 (stereo not given)
186 | O=C(O)CCCCCCCn1c(-c2cc(I)c(O)c(I)c2)nc(-c2ccccc2)c1-c1ccccc1
239 | NS(=O)(=O)c1cccc(-c2cn(-c3nc(-c4ccc(Cl)c(Cl)c4)cc(C(F)(F)F)n3)cn2)c1
108 to 110 | CC(C)OC(=O)c1cc([N+](=O)[O-])c(O)c([N+](=O)[O-])c1
152 to 154 | CN(Cc1sc2c(=O)c(C(=O)NCc3ccc(Cl)cc3)cn(C)c2c1COCC[Si](C)(C)C)CC(O)c1ccc(C#N)s1 (stereo not given)
150 | COc1ccc(S(N)(=O)=O)cc1C(=O)NC1CCN(CC2CC2)C1 (stereo not given)
250 to 252 | O=C(O)c1cn(-c2ccc(F)cc2F)c2c(F)c(F)c(F)c(F)c2c1=O
74 to 76 | COC(=O)Cc1ccc2c(c1)C(=O)c1ccccc1CO2
175 to 180 | Nc1nc(=O)n(C(=O)Oc2ccccc2)cc1F
> 280 | NC(=O)c1c(I)cc(I)c(CCC(=O)O)c1I
285 to 290 | N#CC1=C(N)N(c2ccccc2)CC1=O
98 to 100 | COC(=O)CCc1cc2cc(Cl)ccc2n1S(=O)(=O)c1cccc(C(F)(F)F)c1
189 to 191 | Cc1ccc(Sc2ccccc2C(=O)O)c([N+](=O)[O-])c1
191 to 193 | Cc1cc(O)nc(CCCCOc2nccc(NC(N)=NCC(F)(F)F)n2)n1
252 to 255 | CCCC1(CCC)c2ccccc2-c2cc(NC(=O)c3cc4oc5ccccc5c4cc3OC)c(O)cc21
142 to 143 | Nc1cc(-n2cc(C(=O)O)c(=O)c3cc([N+](=O)[O-])c(F)c(F)c32)c(F)cc1F
161 to 164 | CCOC(=O)c1ccc2cc(Cl)ccn2c1=O
265 to 267 | CC(C)(C)c1cc(C(=O)Nc2ccc(Cl)c(C(=O)O)c2)cc(C(C)(C)C)c1O
221 to 224 | C=C1SC(=O)N(c2ccc3cc(-c4ccc(OC)c(-c5ccccc5)c4)ccc3c2)C1=O
> 300 | Nc1cccc(Nc2ncnc3[nH]cc(C(=O)c4ccccc4)c23)n1
203 to 204 | CON=C1CN(c2c(F)cc3c(=O)c(C(=O)O)cn(C4CC4)c3c2Cl)CC12CN(C(=O)OC(C)(C)C)C2

melting point [°C] | Compound
285 to 286 | Cc1cccc(C)c1COc1cc(C(=O)O)cc2c1nc(C)n2C
133 to 134 | CCOc1cc2c(cc1OCC)CCCC(C(=O)N1CCN(Cc3cc(OC)c(OC)c(OC)c3)CC1)=C2
85 to 87 | CS(=O)(=O)Nc1cc2c(cc1Oc1ccc(F)cc1F)CCC2
170 to 171 | COc1cc(-c2cc(=O)c3ccc(OCC(O)CN4CCN(c5ccccc5)CC4)cc3o2)cc(OC)c1OC (stereo not given)
230 to 231 | Cn1c2c(c3cccc(C#N)c31)C(=O)NCC2
67 to 69 | CCc1noc(-c2cn(-c3cc(OC)ccc3Cl)cn2)n1
197 to 198 | O=C(NCc1ccccc1OC(F)(F)F)[C@@H]1CCCN(c2cccc3c2C(=O)N(Cc2ccncc2)C3=O)C1
81 to 83 | CC(=O)Oc1cccc(C(=O)c2ccccc2)c1OC(C)=O
158 | CCOC(=O)COc1cccc(-c2nc3ncccc3[nH]2)c1
146 to 147 | COc1ccc2c(c1)c(Cc1cc(=O)n(C)[nH]1)c(C)n2C(=O)c1ccc(Cl)cc1
133 to 134 | COc1ccc(CNc2cc(Cn3c(C(=O)c4cc(C)cc(C#N)c4)c(C(C)C)c(=O)[nH]c3=O)c(F)c(F)n2)cc1
291 to 293 | COc1cc(O)c2c(=O)[nH]c(-c3cc(C)c(O)c(C)c3)nc2c1
310 to 315 | O=C1NC(=O)c2c(Br)c(Sc3ccc(Cl)cc3)c(Sc3ccc(Cl)cc3)c(Br)c21
160 to 162 | COc1ccc(C(=O)c2ccc([N+](=O)[O-])cc2)cc1OC
266 | CC(=O)Nc1cccc2c1Cc1ccccc1C2=O
189 | CC1=C(c2ccccc2)C(c2ccccc2OCc2ccccc2)C([N+](=O)[O-])=C(C)N1 (stereo not given)
148 to 150 | O=c1[nH]nnn1-c1ccc([N+](=O)[O-])cc1F
120 to 121 | CCOc1nn(-c2ccc(C(F)(F)F)cn2)cc1CCCOc1ccc(CCC(=O)O)c(OC)c1
132 to 134 | O=C(NCCC1CCN(c2noc3cc(Cl)ccc23)CC1)c1nsc2ccccc12
157 to 158 | Cc1oc(-c2ccccc2)nc1COc1cc(F)cc(CN(O)C(N)=O)c1
112 to 114 | CCCC[C@H](NC(=O)[C@H](CC(C)C)NC(=O)c1ccc(F)c(C(F)(F)F)c1)C(=O)CSCc1ccco1
143 to 145 | CCC(C)n1cc(Cl)nc(N2CCc3cc(OC)cc(Cl)c32)c1=O (stereo not given)

More lines, now with the values behind:

Compound | melting point [°C]
Cc1cc(-c2c(-c3ccc(F)cc3)nn3cccnc23)ccn1 | 164 to 166
Cc1nc(C#N)nc(NCC(F)(F)F)c1I | 103 to 105
Cc1ccc(C2COc3c(C)c(C)c(NC(=O)CC(C)(C)C)c(C)c32)cc1 (stereo not given) | 176 to 177
COc1cc(C(C)C)c(OCC#N)cc1I | 67.5 to 68.8
CC(C)=CCCC(C)=CCOc1ccc(C(=O)NCc2ccncc2)cc1 | 108 to 110
Cc1cccc(C)c1OP(=O)(c1ccccc1)c1cc(O)ccc1O (stereo not given) | 172
C=CCSc1ncn(C(=O)N(CC=C)CC=C)n1 | 27 to 30
CCN1CCN(c2ccc(C(=O)NCCCCCCCCCCCCO[N+](=O)[O-])cn2)CC1 | 71 to 72
CCN(CC)CCC1CCN(C(=O)N2c3ccccc3C(=O)Nc3cccnc32)C1 (stereo not given) | 137 to 138
c1ccc(CN2CCC(c3cc(-c4ccccc4)[nH]n3)CC2)cc1 | 130 to 131
CCCCCCCCNC(=O)c1cscc1C(=O)O | 120 to 122
CN1NN=C(NC(=O)c2cccc3cccnc23)N1 | 222 to 223
CSC(=C[N+](=O)[O-])NCCSCc1[nH]cnc1C | 147 to 150
CSC(=C[N+](=O)[O-])Nc1ccc(Cl)nc1 | 169 to 171
CC(C)N(N)C(=O)c1ccc(-c2ccc(Cl)cc2)o1 | 142 to 144
CC(=O)OCC(=O)Nc1cccc(Cl)c1C#N | 109 to 110
COC(=O)CN(C)c1nc(-c2ccc(Cl)c(Cl)c2)cs1 | 88 to 89
O=c1c(NCCCO)c(Cl)cnn1COCc1ccccc1 | 54 to 56
CCCCCNc1nc(N(C)Cc2ccccc2)c2ncn(CC(=O)O)c2n1 | 134 to 142
CCCN(c1ncnc2[nH]cnc12)n1ccc2ccccc21 | 90 to 95
O=[N+]([O-])c1ccc(CP2(=O)OCCCO2)cc1 | 144 to 145
CCOC(=O)NC(=S)NCCOCC1=C(C(=O)OCC)C(c2cccc(Cl)c2Cl)C(C(=O)OC)=C(C)N1 (stereo not given) | 144
COC(=O)c1c(O)c(-c2ccccc2)nn1C | 88 to 90
Cc1cccc(-c2nc3ccccn3c2-c2ccnc(-c3ccc(N4CCOCC4)cc3)c2)n1 | 190
C=C(C)Oc1nc(NCCSCc2ccco2)ncc1Cc1ccc(C)nc1 | 47 to 48
CC(C(=O)c1ccccc1)(c1ccccc1)c1ccccc1Sc1ccccc1C(C)(C(=O)c1ccccc1)c1ccccc1 (stereo not given) | 101
Fc1ccccc1N1CCN(CCCCNc2ccc(-c3ccccc3)cn2)CC1 | 95
O=C(CC1=CC(OC2CCCCO2)CC1=O)Oc1ccc2ccccc2c1 (stereo not given) | 75

Compound | melting point [°C]
CCCCCCC(CO)n1cnc(C(N)=O)c1 (stereo not given) | 97.5 to 100
CC(O)(c1ccc(Oc2ccccc2)cc1)C1SCSCS1 (stereo not given) | 70 to 71
COc1cc(C2CCC(c3cc(OC)c(OC)c(OC)c3)C2N)cc(OC)c1OC (stereo not given) | 117 to 119
CCCCCc1c(C(C)C)nc(C(C)C)c(CN(C)C)c1-c1ccc(F)cc1 | 69 to 71
Cc1cc(NCc2ccccc2)c(N)c(Cl)n1 | 177 to 178
COc1ccc(C(=O)CCCCc2ccccc2)cc1OC | 56 to 58
CCCCNC(=O)Oc1cccc(NC(=O)CC(C)(OC)OC)c1 | 114
CCCC(=O)NN=Cc1ccnc2ccccc12 | 130
CC(C)NCCCCCCOc1ccc(O)cc1 | 78 to 86
COc1cccc2c1c(=O)oc(=O)n2C | 216
Cc1nnc(CNC(=O)CCl)n1-c1ccc(Cl)cc1C(=O)c1ccccc1 | 140 to 141
Cc1cc(Nc2cncc(-c3ccccc3)n2)n[nH]1 | 232 to 234
COc1ccc2c(c1)Sc1ccccc1C(=O)N2 | 232 to 234
CC(C)OC1COc2ccc(OCc3ccc4ccccc4n3)cc2C1=O (stereo not given) | 85
CC(C)(O)c1cc(-c2ccc(Cl)cc2)nc2ccnn12 | 113 to 115
CC(=O)NC(C)(C)c1ccc(CN2CCN(c3ccccn3)CC2)cc1 | 129 to 130
O=C(O)CCCNC(=O)c1ccccc1SSc1ccccc1C(=O)NCCCC(=O)O | 165 to 166
CC(C)(NC(=O)CCn1ccnc1)c1ccc(Cl)cc1 | 154 to 155
CC(C)COC(=O)N[C@@H](CC(C)C)C(=O)N[C@@H](Cc1ccccc1)C(=O)CSCc1ccco1 | 89 to 90
Cc1n[nH]c2c1C(=O)CC(c1ccccc1O)C2 (stereo not given) | 252 to 255
O=C1CCC(=O)C(Cc2ccccc2)N1 (stereo not given) | 140 to 141
c1ccc(C(Nn2cncn2)c2ccccc2)cc1 | 142 to 145
CCC(=O)OC[C@H]1O[C@@H]2[C@@H](Sc3ccc(Cl)cc3N2CCN(CC)CC)[C@@H](OC(=O)CC)[C@@H]1OC(=O)CC | 125 to 127
CCSc1ccc(-c2ncco2)c2c1C(=O)CC(C)C2 (stereo not given) | 111 to 113
CCCCN(N)C(=O)NC | 48 to 50
COc1ccc2c(c1O)C13CCN(CC4CC4)C(C2)C1CC(C)C(=O)C3 (stereo not given) | 176 to 178
CCCCOc1cc(/C=C(\OCC)C(=O)O)ccc1OCCc1ccc(OCC)c(Cl)c1 | 109

From a melting point compilation (Tetko et al.; mined from patent text by program, amines drawn as free bases though some values may be those of a salt)
